Measurements published in patent publication US20060069132A1, “Azolecarboxamide herbicides” (priority 2004, published 2006).

What was measured:
rice = assay: Test B pre-/postemergence herbicide test; type: in vivo, Oryza sativa; details: preemergence
Summary of the method: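 Response was scored visually 13 to 15 days after treatment against untreated greenhouse controls, 0 meaning no effect and 100 complete control. Formulations (solvent mixture plus surfactant) went onto soil after planting, onto foliage of 1- to 4-leaf plants, and onto 2-leaf plants in a flooded paddy set including rice and barnyardgrass.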

bermudagrass = assay: Test C pre-/postemergence herbicide test; type: in vivo, Cynodon dactylon; details: for Bermudagrass plant response rating: 500 g ai/ha
Summary of the method: (§1)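 Visual injury scores run from 0 (no effect) to 100 (complete control), assessed relative to untreated controls 12 to 14 days after treatment in the greenhouse. Chemicals were formulated in a non-phytotoxic solvent mixture with surfactant and applied to soil after planting or to emerged plants at the 1- to 4-leaf stage.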

giant foxtail = assay: Test C pre-/postemergence herbicide test; type: in vivo, Setaria faberi
Summary of the method: as §1

goosegrass = assay: Test C pre-/postemergence herbicide test; type: in vivo, Eleusine indica
Summary of the method: as §1

kochia = assay: Test C pre-/postemergence herbicide test; type: in vivo, Kochia scoparia
Summary of the method: as §1

morningglory = assay: Test C pre-/postemergence herbicide test; type: in vivo, Ipomoea coccinea; set-up: key to Plant response rating, Morningglory: 0 = no effect, 100 = complete control
Summary of the method: as §1

soybean = assay: Test C pre-/postemergence herbicide test; type: in vivo, Glycine max
Summary of the method: as §1

[1] = system: common (oilseed) sunflower; assay: Test C pre-/postemergence herbicide test; type: in vivo, Helianthus annuus; details: preemergence
Summary of the method: as §1

[2] = system: smallflower umbrella sedge; assay: Test C flooded paddy test; type: in vivo, Cyperus difformis; details: for Plant response rating, Sedge, Umbrella: 500 g ai/ha, visual rating after 12 to 14 days
[3] = 31 g ai/ha, preemergence, scale 0 to 100
[4] = 125 g ai/ha, scale 0 (no effect) to 100 (complete control), visual, 12 to 14 days, preemergence
[5] = 250 g ai/ha, scale of 0 to 100, 0 is no effect, 100 is complete control
[6] = scale 0 to 100 (0 no effect, 100 complete control)
[7] = 500 g ai/ha, visual rating, 0 = no effect, 100 = complete control
[8] = 62 g ai/ha, preemergence, scale 0 to 100, 0 no effect, 100 complete control
[9] = 250 g ai/ha, scale 0-100, preemergence
[10] = Postemergence, 250 g ai/ha, scale 0 to 100, 0 no effect, 100 complete control
[11] = Preemergence, scale 0 to 100, 0 no effect, 100 complete control
[12] = postemergence, 125 g ai/ha, scale 0 to 100
[13] = postemergence, 62 g ai/ha, scale 0 to 100
[14] = 62 g ai/ha, preemergence, scale 0 to 100
[15] = 500 g ai/ha, scale 0 to 100 (0 no effect, 100 complete control), visual, 12 to 14 days, preemergence
[16] = Postemergence, 500 g ai/ha, scale 0 to 100
[17] = 500 g ai/ha, scale 0 to 100 (0 no effect, 100 complete control), visual, 12 to 14 days
[18] = 125 g ai/ha, scale 0 to 100 (0 no effect, 100 complete control)

CCC(=NO)c1cccc(NC(=O)c2cc(C(C)(C)C)nn2C)c1 [Compound 118]
90: Plant response rating (0 = no effect, 100 = complete control), Bermudagrass (bermudagrass; 62 g ai/ha, preemergence)
20: Plant response rating, Goosegrass (goosegrass; [3]) | Plant response rating (0 = no effect, 100 = complete control), Goosegrass (goosegrass; 62 g ai/ha, preemergence) | Plant response rating (0 = no effect, 100 = complete control), Kochia (kochia; 62 g ai/ha, preemergence) | Plant response rating, Kochia (kochia; [4]) | Plant response rating (0 = no effect, 100 = complete control), Morningglory (morningglory; 62 g ai/ha, preemergence) | Plant response rating, Sunflower ([1]; 125 g ai/ha, scale 0 (no effect) to 100 (complete control), visual, 12 to 14 days)
30: Plant response rating, Bermudagrass (bermudagrass; [3]) | Plant response rating, Morningglory (morningglory; [4])
100: Plant response rating, Bermudagrass (bermudagrass; [4])
10: Plant response rating, Foxtail, Giant (giant foxtail; [4]) | Plant response rating, Kochia (kochia; [3]) | Plant response rating, Soybean (soybean; [4])
0: Plant response rating, Rice (rice; 125 g ai/ha, 0 to 100 scale, 0 is no effect, 100 is complete control) | Plant response rating, Bermudagrass (bermudagrass; 16 g ai/ha, scale 0 to 100, 0 no effect, 100 complete control, last section of Table C (species set of preemergence test)) | Plant response rating, Foxtail, Giant (giant foxtail; [3]) | Plant response rating (0 = no effect, 100 = complete control), Foxtail, Giant (giant foxtail; 62 g ai/ha, preemergence) | Plant response rating, Morningglory (morningglory; [3]) | Plant response rating, Soybean (soybean; [3]) | Plant response rating (0 = no effect, 100 = complete control), Soybean (soybean; 62 g ai/ha, preemergence) | Plant response rating, Sunflower ([1]; 31 g ai/ha, scale 0 to 100) | Plant response rating (0 = no effect, 100 = complete control), Sunflower ([1]; 62 g ai/ha) | Sedge, Umbrella plant response rating ([2]; 62 g ai/ha, scale 0 to 100 (0 no effect, 100 complete control))
50: Sedge, Umbrella plant response rating ([2]; 125 g ai/ha, scale of 0 to 100, 0 is no effect, 100 is complete control) | Sedge, Umbrella plant response rating [2, 5] | Plant response rating, Sedge, Umbrella [2, 6]
80: Plant response rating, Goosegrass (goosegrass; [4])

CCn1nc(C(C)(C)C)cc1C(=O)Nc1cccc(OC(F)(F)C(F)F)c1 [Compound 333]
40: Plant response rating, Bermudagrass (bermudagrass; [8]) | Plant response rating, Soybean (soybean; [10])
90: Plant response rating, Kochia (kochia; [13])
75: Plant response rating, Foxtail, Giant (giant foxtail; [15])
0: Plant response rating (0 to 100 scale), Rice (rice; 125 g ai/ha, 0 is no effect, 100 is complete control) | Plant response rating, Rice (rice; [7]) | Plant response rating, Bermudagrass (bermudagrass; [12]) | Plant response rating, Bermudagrass (bermudagrass; [13]) | Plant response rating, Foxtail, Giant (giant foxtail; [14]) | Plant response rating, Goosegrass (goosegrass; [14]) | Plant response rating, Morningglory (morningglory; [14]) | Plant response rating, Morningglory (morningglory; [4]) | Plant response rating, Morningglory (morningglory; [9]) | Plant response rating, Morningglory (morningglory; [12]) | Plant response rating, Morningglory (morningglory; [13]) | Plant response rating, Soybean (soybean; [14]) | Plant response rating, Soybean (soybean; [9]) | Plant response rating, Soybean (soybean; [15]) | Plant response rating, Sunflower ([1]; 62 g ai/ha, scale 0 to 100) | Plant response rating, Sunflower ([1]; 250 g ai/ha, scale 0-100) | Plant response rating, Sunflower [1, 17] | Sedge, Umbrella plant response rating ([2]; 62 g ai/ha, scale 0 to 100)
45: Soybean plant response rating (soybean; [16])
85: Plant response rating, Bermudagrass (bermudagrass; [4]) | Plant response rating, Goosegrass (goosegrass; [9])
10: Plant response rating, Foxtail, Giant (giant foxtail; [4]) | Foxtail, Giant plant response rating (giant foxtail; [16]) | Plant response rating, Foxtail, Giant (giant foxtail; [10]) | Plant response rating, Goosegrass (goosegrass; [10]) | Plant response rating, Goosegrass (goosegrass; [12]) | Plant response rating, Morningglory (morningglory; [15]) | Morningglory plant response rating (morningglory; [16]) | Plant response rating, Morningglory (morningglory; [10])
50: Plant response rating, Foxtail, Giant (giant foxtail; [9])
100: Plant response rating, Bermudagrass (bermudagrass; [9]) | Bermudagrass plant response rating (bermudagrass; [11]) | Plant response rating, Goosegrass (goosegrass; [15]) | Plant response rating, Kochia (kochia; [4]) | Plant response rating, Kochia (kochia; [9]) | Plant response rating, Kochia (kochia; [15]) | Kochia plant response rating (kochia; [16]) | Plant response rating, Kochia (kochia; [10]) | Plant response rating, Kochia (kochia; [12])
15: Goosegrass plant response rating (goosegrass; [16]) | Sedge, Umbrella plant response rating [2, 18]
80: Plant response rating, Kochia (kochia; [14]) | Plant response rating, Sedge, Umbrella [2, 6]
5: Bermudagrass plant response rating (bermudagrass; Postemergence, scale 0 to 100) | Plant response rating, Bermudagrass (bermudagrass; [10]) | Plant response rating, Foxtail, Giant (giant foxtail; [12]) | Plant response rating, Foxtail, Giant (giant foxtail; [13]) | Plant response rating, Goosegrass (goosegrass; [13])
30: Plant response rating, Goosegrass (goosegrass; [4]) | Plant response rating, Soybean (soybean; [12]) | Plant response rating, Soybean (soybean; [13]) | Sedge, Umbrella plant response rating [2, 5]

CCN1N=C(C(C)(C)C)CC1C(=O)Nc1cc(C(=O)N2CCCC2)ccc1F (racemic) [Compound 309]
20: Plant response rating, Soybean (soybean; [14])
85: Plant response rating, Goosegrass (goosegrass; [14]) | Plant response rating, Goosegrass (goosegrass; [4])
80: Plant response rating, Foxtail, Giant (giant foxtail; [4]) | Plant response rating, Soybean (soybean; [9]) | Plant response rating, Soybean (soybean; [15]) | Sedge, Umbrella plant response rating ([2]; 62 g ai/ha, scale 0 to 100) | Sedge, Umbrella plant response rating [2, 18] | Sedge, Umbrella plant response rating [2, 5] | Plant response rating, Sedge, Umbrella [2, 6]
5: Plant response rating, Morningglory (morningglory; [4]) | Plant response rating, Morningglory (morningglory; [9]) | Plant response rating, Sunflower ([1]; 250 g ai/ha, scale 0-100)
100: Bermudagrass plant response rating (bermudagrass; [11]) | Plant response rating, Foxtail, Giant (giant foxtail; [15]) | Plant response rating, Goosegrass (goosegrass; [9]) | Plant response rating, Goosegrass (goosegrass; [15]) | Plant response rating, Kochia (kochia; [14]) | Plant response rating, Kochia (kochia; [4]) | Plant response rating, Kochia (kochia; [9]) | Plant response rating, Kochia (kochia; [15])
70: Rice plant response rating (0 to 100 scale) (rice; 125 g ai/ha, 0 = no effect, 100 = complete control) | Plant response rating, Foxtail, Giant (giant foxtail; [14])
90: Plant response rating, Rice (rice; [7]) | Plant response rating, Bermudagrass (bermudagrass; [8]) | Plant response rating, Bermudagrass (bermudagrass; [4]) | Plant response rating, Foxtail, Giant (giant foxtail; [9])
40: Plant response rating, Morningglory (morningglory; [15])
60: Plant response rating, Sunflower [1, 17]
0: Plant response rating, Morningglory (morningglory; [14]) | Plant response rating, Sunflower ([1]; 62 g ai/ha, scale 0 to 100)
95: Plant response rating, Bermudagrass (bermudagrass; [9])
